Data: patent US11834496B2, “Composition of a drug carrier, pharmaceutical composition thereof, preparation method and use method thereof” (EOS BIOMATERIALS INC., priority 2020, dated 2023)

Assay: Drug release rate test of pharmaceutical composition (dialysis bag in PBS, HPLC)
Type: physicochemical
Conditions: 37° C.; for drug release rate: gentamicin 50 mg, 200 ml PBS
Protocol: In this test, a total of 3 ml solutions of the first and second mixtures (the weight ratio of sodium alginate:tricalcium phosphate:methylcellulose:sodium hyaluronate:calcium chloride was 36:36:15:80:20) and 50 mg of gentamicin were mixed to prepare a pharmaceutical composition containing gentamicin to be an experimental group. Then, the pharmaceutical composition containing gentamicin was placed in a dialysis bag. At the same time, 50 mg of gentamicin was dissolved in 3 ml of water as a control group.
Next, two 500 ml beaker were respectively added with 200 ml of phosphate buffered saline (PBS) solution. The prepared solutions of the experimental group and control group were respectively placed in dialysis bags, which were then placed in the PBS solutions. After that, the beakers, containing the dialysis bag and the PBS solution, were slightly shaken at 37° C. to allow the release of the drug from the dialysis bag to the PBS solution. In the drug release period, the PBS solution of the experimental and control groups are sampled at 15 minutes, 30 minutes, 45 minutes, 60 minutes, 75 minutes, 90 minutes, 105 minutes, 120 minutes, 150 minutes, 180 minutes, 1 day, 2 days, 3 days, 4 days, 5 days, 6 days, and 7 days, from the time start shaking. The sampled volume of the PBS solutions in beakers was 1 mL, and 1 mL of fresh PBS solution was added back to the sampled beakers. The concentrations of the gentamicin released in the PBS solution from the dialysis bag were analyzed by high performance liquid chromatography (HPLC).

Substance: gentamicin
- cumulative release amount of the gentamicin released in the PBS solution (PBS, in less than 30 hours): ~100%
- drug release rate (within 180 hours, relative to experimental group): much faster
- drug release rate (within the first 3 hours): much faster
